Reference: patent publication US8344135B2, “Heterocyclic compound and use thereof” (Takeda Pharmaceutical Company Limited, priority 2007, dated 2013)

What was measured:
[1] = biological target: T1, BRAF (V600E) (Homo sapiens, UniProt P15056, V600E); assay: Determination of BRAF (V600E) kinase inhibitory activity; type: biochemical; conditions: test compound 1.0 μM; substrate GST-MEK1 (K96R); [γ-32P]ATP; read-out: Inhibitory rate (%) at 1.0 μM
T1 construct: area encoding the BRAF kinase domain region, so that the protein contains an N-terminal Flag; made in house; host or cells: SF-21 insect cells infected with recombinant baculovirus BAC-V600E
T1 sequence (P15056 457-717 V600E limits assumed): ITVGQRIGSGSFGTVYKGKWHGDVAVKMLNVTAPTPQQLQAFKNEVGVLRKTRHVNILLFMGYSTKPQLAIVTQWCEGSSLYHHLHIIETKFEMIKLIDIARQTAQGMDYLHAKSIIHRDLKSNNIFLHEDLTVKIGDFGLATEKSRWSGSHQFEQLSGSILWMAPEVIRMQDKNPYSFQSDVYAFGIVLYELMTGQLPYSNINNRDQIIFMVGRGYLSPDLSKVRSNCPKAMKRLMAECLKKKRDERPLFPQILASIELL
Protocol: Determination of BRAF (V600E) Kinase Inhibitory Activity
A test compound (2.5 μL) dissolved in dimethyl sulfoxide (DMSO) was added to 37.5 μL of a reaction solution (25 mM HEPES (pH 7.5), 10 mM magnesium acetate, 1 mM dithiothreitol) containing BRAF (V600E) enzyme (30 ng) and recombinant type protein GST-MEK1 (K96R) 250 ng, and the mixture was incubated at room temperature for 10 min. ATP solution (10 μL, 2.5 μM ATP, 0.1 μCi [γ-^32P]ATP) was added to the obtained mixture, and the mixture was reacted at room temperature for 20 min. The reaction was quenched by adding 50 μL of ice-cooled 20% trichloroacetic acid (Wako Pure Chemical Industries, Ltd.). The reaction solution was allowed to stand at 4° C. for 30 min, and the acid-precipitable fraction was transferred to GF/C filter plate (Millipore Corporation) using cell harvester (PerkinElmer). The plate was dried at 45° C. for 60 min, and 40 μL of MicroScinti 0 (PerkinElmer) was added thereto. The radioactivity was measured using TopCount (PerkinElmer). The kinase inhibitory rate (%) of the test compound was calculated by the following formula: Inhibitory rate (%)=(1−(count of test compound−blank)÷(control−blank))×100
The count of the solution reacted without addition of the compound was used as a “control”, and the count of the solution without the compound and enzyme was used as a “blank”.

[2] = test system: human colon cancer cell HT-29; assay: Colon cancer cell HT-29 growth suppressive action in vitro; type: cell-based; conditions: 72 h, HT-29 cells, 3 days culture, SRB staining, read-out: IC50 (nM), cell growth suppression
Protocol: Colon Cancer Cell HT-29 Growth Suppressive Action in vitro
A cell suspension (100 μL, 3,000 cells/well) of human colon cancer cell HT-29 (purchased from ATCC) was plated in a 96-well plate, and the cells were cultured at 37° C. in a 5% carbon dioxide gas incubator. The next day, 2-fold serial dilution of each test compound solution (diluted from maximum concentration 20 μM) (100 μL) was added, and the cells were cultured for 3 days. The culture medium containing the test compound was removed, and the cells were washed with phosphate buffer (PBS). A 50% trichloroacetic acid solution was added to the final concentration of 10% (v/v), and the mixture was stood overnight at 4° C., whereby the cells were fixed to the plate. Then, a dye SRB 0.4% (w/v) solution (dissolved in 1% acetic acid) was added at 50 μl/well, whereby the cell protein was fixed and stained (Skehan et al., Journal Of National Cancer Institute, vol. 82, pp. 1107-1112, 1990). The cells were washed 3 times with 1% acetic acid solution (200 μL/well), and 100 μL of an extract (10 mM Tris buffer) was added to extract the dye. The absorbance at an absorption wavelength […] was measured, and cell amount was measured as a protein amount.

inhibition at 1 µM [1]	IC50 [2]	Structure (SMILES)
	< 500 nM	COc1ccc(NC(=O)c2cccc(C(C)(C)C#N)c2)cc1Oc1ccc2nc(NC(=O)C3CC3)sc2n1 [Example C6, 3-(1-cyano-1-methylethyl)-N-[3-({2-[(cyclopropylcarbonyl)amino][1,3]thiazolo[5,4-b]pyridin-5-yl}oxy)-4-methoxyphenyl]benzamide]
99%		Cc1ccc(NC(=O)c2cccc(C(F)(F)F)c2)cc1Oc1ccc2nc(NC(=O)C3CC3)sc2n1 [Example C8, N-[3-({2-[(cyclopropylcarbonyl)amino][1,3]thiazolo[5,4-b]pyridin-5-yl}oxy)-4-methylphenyl]-3-(trifluoromethyl)benzamide]
	< 500 nM	Cc1ccc(NC(=O)c2cccc(C(C)(C)C#N)c2)cc1Oc1ccc2nc(NC(=O)C3CC3)sc2n1 [Example C12, 3-(1-cyano-1-methylethyl)-N-[3-({2-[(cyclopropylcarbonyl)amino][1,3]thiazolo[5,4-b]pyridin-5-yl}oxy)-4-methylphenyl]benzamide]
	< 500 nM	CC(C)(C#N)c1cccc(C(=O)Nc2cccc(Oc3ccc4nc(NC(=O)C5CC5)sc4n3)c2)c1 [Example C23, 3-(1-cyano-1-methylethyl)-N-[3-({2-[(cyclopropylcarbonyl)amino][1,3]thiazolo[5,4-b]pyridin-5-yl}oxy)phenyl]benzamide]
	< 500 nM	Cc1ccc(NC(=O)c2cccc(C(C)(C)C#N)c2)cc1Nc1ncc2nc(NC(=O)C3CC3)sc2n1 [Example D25, 3-(1-cyano-1-methylethyl)-N-[3-({2-[(cyclopropylcarbonyl)amino][1,3]thiazolo[5,4-d]pyrimidin-5-yl}amino)-4-methylphenyl]benzamide]
	< 500 nM	Cc1ccc(NC(=O)c2cccc(C(C)(C)C#N)c2)cc1Nc1ncc2nc(NC(=O)CN3CCN(C)CC3)sc2n1 [Example D33, 3-(1-cyano-1-methylethyl)-N-{4-methyl-3-[(2-{[(4-methylpiperazin-1-yl)acetyl]amino}[1,3]thiazolo[5,4-d]pyrimidin-5-yl)amino]phenyl}benzamide]
	< 500 nM	CC(=O)Nc1nc2cnc(Nc3cc(NC(=O)c4cccc(C(C)(C)C#N)c4Cl)ccc3C)nc2s1 [Example D35, N-(3-{[2-(acetylamino)[1,3]thiazolo[5,4-d]pyrimidin-5-yl]amino}-4-methylphenyl)-2-chloro-3-(1-cyano-1-methylethyl)benzamide]

More lines, now with the values behind:

Structure (SMILES)	inhibition at 1 µM [1]	IC50 [2]
COc1ccc(NC(=O)c2cccc(C3(C#N)CC3)c2)cc1Oc1ccc2nc(NC(=O)C3CC3)sc2n1 [Example C1, 3-(1-cyanocyclopropyl)-N-[3-({2-[(cyclopropylcarbonyl)amino][1,3]thiazolo[5,4-b]pyridin-5-yl}oxy)-4-methoxyphenyl]benzamide]	100%	
Cc1ccc(NC(=O)c2cccc(C(C)(C)C#N)c2)cc1Oc1ccc2nc(NC(=O)CN3CCN(C)CC3)sc2n1 [Example C15, 3-(1-cyano-1-methylethyl)-N-{4-methyl-3-[(2-{[(4-methylpiperazin-1-yl)acetyl]amino}[1,3]thiazolo[5,4-b]pyridin-5-yl)oxy]phenyl}benzamide]		< 500 nM
Cc1ccc(NC(=O)c2cccc(C3(C#N)CC3)c2)cc1Oc1ccc2nc(NC(=O)CO)sc2n1 [Example C17, 3-(1-cyanocyclopropyl)-N-(3-{[2-(glycoloylamino)[1,3]thiazolo[5,4-b]pyridin-5-yl]oxy}-4-methylphenyl)benzamide]	99%	
Cc1ccc(NC(=O)c2cccc(C3(C#N)CC3)c2)cc1Oc1ccc2nc(NC(=O)CN3CCN(C)CC3)sc2n1 [Example C19, 3-(1-cyanocyclopropyl)-N-{4-methyl-3-[(2-{[(4-methylpiperazin-1-yl)acetyl]amino}[1,3]thiazolo[5,4-b]pyridin-5-yl)oxy]phenyl}benzamide]		< 500 nM
O=C(Nc1cccc(Oc2ccc3nc(NC(=O)C4CC4)sc3n2)c1)c1cccc(C(F)(F)F)c1 [Example C20, N-[3-({2-[(cyclopropylcarbonyl)amino][1,3]thiazolo[5,4-b]pyridin-5-yl}oxy)phenyl]-3-(trifluoromethyl)benzamide]	100%	
CN1CCN(CC(=O)Nc2nc3ccc(Oc4cccc(NC(=O)c5cccc(C(F)(F)F)c5)c4)nc3s2)CC1 [Example C22, N-{3-[(2-{[(4-methylpiperazin-1-yl)acetyl]amino}[1,3]thiazolo[5,4-b]pyridin-5-yl)oxy]phenyl}-3-(trifluoromethyl)benzamide]	100%	
CC(C)(C#N)c1cccc(C(=O)Nc2cccc(Oc3ccc4nc(NC(=O)CO)sc4n3)c2)c1 [Example C24, 3-(1-cyano-1-methylethyl)-N-(3-{[2-(glycoloylamino)[1,3]thiazolo[5,4-b]pyridin-5-yl]oxy}phenyl)benzamide]		< 500 nM
CN1CCN(CC(=O)Nc2nc3ccc(Oc4cccc(NC(=O)c5cccc(C(C)(C)C#N)c5)c4)nc3s2)CC1 [Example C25, 3-(1-cyano-1-methylethyl)-N-{3-[(2-{[(4-methylpiperazin-1-yl)acetyl]amino}[1,3]thiazolo[5,4-b]pyridin-5-yl)oxy]phenyl}benzamide]	100%	
CN1CCN(CC(=O)Nc2nc3ccc(Oc4cccc(NC(=O)c5cccc(C6(C#N)CC6)c5)c4)nc3s2)CC1 [Example C28, 3-(1-cyanocyclopropyl)-N-{3-[(2-{[(4-methylpiperazin-1-yl)acetyl]amino}[1,3]thiazolo[5,4-b]pyridin-5-yl)oxy]phenyl}benzamide]		< 500 nM
Cc1ccc(Oc2ccc3nc(NC(=O)c4cocn4)sc3n2)cc1NC(=O)c1cccc(C2(C#N)CC2)c1 [Example C30, N-[5-(3-{[3-(1-cyanocyclopropyl)benzoyl]amino}-4-methylphenoxy)[1,3]thiazolo[5,4-b]pyridin-2-yl]-1,3-oxazole-4-carboxamide]	100%	
Cc1ccc(Oc2ccc3nc(NC(=O)CO)sc3n2)cc1NC(=O)c1cccc(C(C)(C)C#N)c1 [Example C36, 3-(1-cyano-1-methylethyl)-N-(5-{[2-(glycoloylamino)[1,3]thiazolo[5,4-b]pyridin-5-yl]oxy}-2-methylphenyl)benzamide]	100%	
O=C(Nc1cccc(Nc2ccc3nc(NC(=O)C4CC4)sc3n2)c1)c1cccc(C(F)(F)F)c1 [Example C41, N-[3-({2-[(cyclopropylcarbonyl)amino][1,3]thiazolo[5,4-b]pyridin-5-yl}amino)phenyl]-3-(trifluoromethyl)benzamide]	100%	
N#CC1(c2cccc(C(=O)Nc3cc(Oc4ccc5nc(NC(=O)C6CC6)sc5n4)ccc3F)c2Cl)CC1 [Example C66, 2-chloro-3-(1-cyanocyclopropyl)-N-[5-({2-[(cyclopropylcarbonyl)amino][1,3]thiazolo[5,4-b]pyridin-5-yl}oxy)-2-fluorophenyl]benzamide]		< 500 nM
CCN1CCN(CC(=O)Nc2nc3ccc(Oc4cc(NC(=O)c5cccc(C(C)(C)C#N)c5)ccc4C)nc3s2)CC1 [Example C88, 3-(1-cyano-1-methylethyl)-N-{3-[(2-{[(4-ethylpiperazin-1-yl)acetyl]amino}[1,3]thiazolo[5,4-b]pyridin-5-yl)oxy]-4-methylphenyl}benzamide]		< 500 nM
CN(c1ccc(F)c(NC(=O)c2cccc(OC(C)(C)C#N)c2Cl)c1)c1ccc2nc(NC(=O)C3CC3)sc2n1 [Example C122, 2-chloro-3-(1-cyano-1-methylethoxy)-N-{5-[{2-[(cyclopropylcarbonyl)amino][1,3]thiazolo[5,4-b]pyridin-5-yl}(methyl)amino]-2-fluorophenyl}benzamide]		< 500 nM
CC(C)(C#N)Oc1cccc(C(=O)Nc2cc(Nc3ccc4nc(NC(=O)C5CC5)sc4n3)ccc2F)c1Cl [Example C126, 2-chloro-3-(1-cyano-1-methylethoxy)-N-[5-({2-[(cyclopropylcarbonyl)amino][1,3]thiazolo[5,4-b]pyridin-5-yl}amino)-2-fluorophenyl]benzamide]		< 500 nM
CN1CCN(CC(=O)Nc2nc3cnc(N(C)c4cccc(NC(=O)c5cccc(C(C)(C)C#N)c5)c4)nc3s2)CC1 [Example D11, 3-(1-cyano-1-methylethyl)-N-{3-[methyl(2-{[(4-methylpiperazin-1-yl)acetyl]amino}[1,3]thiazolo[5,4-d]pyrimidin-5-yl)amino]phenyl}benzamide]		< 500 nM
